{"source": "ChEMBL document CHEMBL4265932", "about": "“Advances in diarylpyrimidines and related analogues as HIV-1 nonnucleoside reverse transcriptase inhibitors” (Eur J Med Chem, 2018)", "key": {"[1]": {"assay": "Selectivity index, ratio of CC50 for human MT4 cells to EC50 for wild-type HIV1 3B reverse transcriptase infected in human MT4 cells", "assay_type": "toxicity, cell-based", "details": "read-out: Ratio CC50/EC50"}, "[2]": {"system": "Human immunodeficiency virus 1", "assay": "Antiviral activity against wild-type HIV1 infected in human TZM-bl cells pretreated with cells for 30 mins followed by viral infection and measured after 48 hrs by luciferase reporter gene assay", "assay_type": "functional, organism-based", "details": "Human immunodeficiency virus 1, TZM-bl"}, "[3]": {"assay": "Selectivity index, ratio of CC50 for human TZM-bl cells to EC50 for wild-type HIV1 infected in human TZM-bl cells", "assay_type": "toxicity, cell-based", "details": "read-out: Ratio CC50/EC50"}, "[4]": {"target": "T1, Human immunodeficiency virus type 1 reverse transcriptase (Human immunodeficiency virus 1, UniProt Q72547, K103N/Y181C)", "assay": "Inhibition of HIV1 RES056 reverse transcriptase K103N/Y181C double mutant"}, "[5]": {"target": "T2, Human immunodeficiency virus type 1 reverse transcriptase (Human immunodeficiency virus 1, UniProt Q72547)", "assay": "Inhibition of wild-type HIV1 3B reverse transcriptase"}, "[6]": {"target": "Human immunodeficiency virus type 1 reverse transcriptase (Human immunodeficiency virus 1, UniProt Q72547, L100I)", "assay": "Inhibition of recombinant HIV1 reverse transcriptase L100I mutant"}, "[7]": {"target": "Human immunodeficiency virus type 1 reverse transcriptase (Human immunodeficiency virus 1, UniProt Q72547, K103N)", "assay": "Inhibition of recombinant HIV1 reverse transcriptase K103N mutant"}, "[8]": {"target": "Human immunodeficiency virus type 1 reverse transcriptase (Human immunodeficiency virus 1, UniProt Q72547, Y181C)", "assay": "Inhibition of recombinant HIV1 reverse transcriptase Y181C mutant"}, "[9]": {"target": "Human immunodeficiency virus type 1 reverse transcriptase (Human immunodeficiency virus 1, UniProt Q72547, Y188L)", "assay": "Inhibition of recombinant HIV1 reverse transcriptase Y188L mutant"}, "[10]": {"target": "Human immunodeficiency virus type 1 reverse transcriptase (Human immunodeficiency virus 1, UniProt Q72547, K103N/L100I)", "assay": "Inhibition of recombinant HIV1 reverse transcriptase L100I/K103N double mutant"}, "[11]": {"target": "T1, Human immunodeficiency virus type 1 reverse transcriptase", "assay": "Inhibition of recombinant HIV1 reverse transcriptase K103N/Y181C double mutant"}, "[12]": {"target": "T2, Human immunodeficiency virus type 1 reverse transcriptase", "assay": "Inhibition of HIV1 reverse transcriptase"}}}
{"smiles": "N#Cc1ccc(Nc2nccc(Oc3ccc4cc(C#N)ccc4c3Br)n2)cc1", "values": [{"measurement": "selectivity ratio", "setting": "[1]", "result": 181000}]}
{"smiles": "Cc1cc(/C=C/C#N)cc(C)c1Nc1ccc(F)c(Nc2ccc(C#N)cc2)n1", "values": [{"measurement": "EC50", "setting": "[2]", "result": 1.6, "unit": "nM"}, {"measurement": "selectivity ratio", "setting": "[3]", "result": 62500}]}
{"smiles": "Cc1cc(C#N)cc(C)c1Nc1ncc(F)c(Nc2ccc(C#N)cc2)n1", "values": [{"measurement": "EC50", "setting": "[2]", "result": 2.8, "unit": "nM"}, {"measurement": "selectivity ratio", "setting": "[3]", "result": 36000}]}
{"smiles": "Cc1cc(/C=C/C#N)cc(F)c1Nc1ccc(F)c(Nc2ccc(C#N)cc2)n1", "values": [{"measurement": "EC50", "setting": "[2]", "result": 1, "unit": "nM"}, {"measurement": "selectivity ratio", "setting": "[3]", "result": "> 100000"}]}
{"smiles": "Cc1cc(/C=C/C#N)cc(C)c1Nc1ncc(F)c(Nc2ccc(C#N)cc2)n1", "values": [{"measurement": "EC50", "setting": "[2]", "result": 0.9, "unit": "nM"}, {"measurement": "selectivity ratio", "setting": "[3]", "result": "> 42000"}]}
{"smiles": "N#Cc1ccc(Nc2nccc(/C(=N\\N)c3ccccc3Br)n2)cc1", "values": [{"measurement": "EC50", "setting": "[4]", "result": "> 9200", "unit": "nM"}, {"measurement": "EC50", "setting": "[5]", "result": 1.7, "unit": "nM"}]}
{"smiles": "N#Cc1ccc(Nc2nccc(Oc3ccc4ccccc4c3Br)n2)cc1", "values": [{"measurement": "selectivity ratio", "setting": "[1]", "result": 65600}]}
{"smiles": "Cc1cc(C)c(Nc2ccnc(Nc3ccc(C(N)=O)cc3)n2)c(C)c1", "values": [{"measurement": "IC50", "setting": "[6]", "result": "> 10000", "unit": "nM"}, {"measurement": "IC50", "setting": "[7]", "result": "> 10000", "unit": "nM"}, {"measurement": "IC50", "setting": "[8]", "result": "> 10000", "unit": "nM"}, {"measurement": "IC50", "setting": "[5]", "result": 63.1, "unit": "nM"}, {"measurement": "IC50", "setting": "[9]", "result": "> 10000", "unit": "nM"}]}
{"smiles": "N#Cc1ccc(Nc2nccc(/C(=N\\N)c3ccc4ccccc4c3)n2)cc1", "values": [{"measurement": "EC50", "setting": "[4]", "result": 8400, "unit": "nM"}, {"measurement": "EC50", "setting": "[5]", "result": 8.4, "unit": "nM"}]}
{"smiles": "Cc1cc(C)c(Nc2ccnc(Nc3ccc(Cl)cc3)n2)c(C)c1", "values": [{"measurement": "IC50", "setting": "[6]", "result": 200, "unit": "nM"}, {"measurement": "IC50", "setting": "[7]", "result": 25.1, "unit": "nM"}, {"measurement": "IC50", "setting": "[8]", "result": 79.4, "unit": "nM"}, {"measurement": "IC50", "setting": "[5]", "result": 3.16, "unit": "nM"}, {"measurement": "IC50", "setting": "[10]", "result": "> 10000", "unit": "nM"}, {"measurement": "IC50", "setting": "[9]", "result": 2510, "unit": "nM"}]}
{"smiles": "Cc1cc(C)c(Nc2ccnc(Nc3ccc(C#N)cc3)n2)c(C)c1", "note": "[DAPIVIRINE]", "values": [{"measurement": "IC50", "setting": "[6]", "result": 15.8, "unit": "nM"}, {"measurement": "IC50", "setting": "[7]", "result": 3.98, "unit": "nM"}, {"measurement": "IC50", "setting": "[8]", "result": 7.94, "unit": "nM"}, {"measurement": "IC50", "setting": "[11]", "result": 39.8, "unit": "nM"}, {"measurement": "IC50", "setting": "[5]", "result": 1, "unit": "nM"}, {"measurement": "IC50", "setting": "[10]", "result": "> 10000", "unit": "nM"}, {"measurement": "IC50", "setting": "[9]", "result": 39.8, "unit": "nM"}]}
{"smiles": "CC(=O)c1ccc(C)cc1NC(C(N)=O)c1c(Cl)cccc1Cl", "note": "(stereo not drawn) [LOVIRIDE]", "values": [{"measurement": "EC50", "setting": "[12]", "result": 13, "unit": "nM"}]}
